{
  "source": "paper PMC8914261",
  "about": "“Discovery and Characterization of the Naturally Occurring Inhibitors Against Human Pancreatic Lipase in Ampelopsis grossedentata” (Frontiers in Nutrition, 2022)",
  "key": {"[1]": {"target": "T1, human pancreatic lipase (hPL) (Homo sapiens, UniProt P16233)", "T1 construct": "made in house", "T1 sequence (P16233 17-465)": "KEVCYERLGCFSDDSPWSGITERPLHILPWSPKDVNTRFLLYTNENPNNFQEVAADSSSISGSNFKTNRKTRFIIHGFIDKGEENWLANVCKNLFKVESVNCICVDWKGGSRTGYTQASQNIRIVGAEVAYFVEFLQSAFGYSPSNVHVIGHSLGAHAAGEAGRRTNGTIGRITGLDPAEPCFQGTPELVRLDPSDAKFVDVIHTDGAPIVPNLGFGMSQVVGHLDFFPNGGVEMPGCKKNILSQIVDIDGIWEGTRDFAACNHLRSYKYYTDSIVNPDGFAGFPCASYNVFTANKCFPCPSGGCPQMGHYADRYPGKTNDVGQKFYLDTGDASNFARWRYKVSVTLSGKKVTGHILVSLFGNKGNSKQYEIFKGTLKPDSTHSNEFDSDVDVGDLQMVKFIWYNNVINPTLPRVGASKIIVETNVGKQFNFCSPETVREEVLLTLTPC", "experiment": "hPL inhibition assay (hPL-catalyzed DDAO-ol hydrolysis, fluorescence)", "format": "biochemical", "details": "for IC50: hPL, DDAO-ol 20 μM as substrate, 3 min pre-incubation at 37°C; for remaining activity at 10 µM: inhibitor at 10 μM, read-out: residual activities of hPL; for hPL inhibition at high dose: inhibitor at 100 μM; for hPL inhibition activity (qualitative): tested at 1, 10 and 100 μM"}, "[2]": {"target": "T1, human pancreatic lipase (hPL)", "experiment": "Inhibition kinetic analyses against hPL-catalyzed DDAO-ol hydrolysis (Lineweaver-Burk)", "format": "biochemical"}, "[3]": {"target": "T1, human pancreatic lipase (hPL)", "experiment": "Time-dependent inhibition assay of hPL (different pre-incubation times)", "format": "biochemical", "details": "long pre-incubation time vs. standard", "procedure": "After pre-incubating at 37°C for 3 min, the substrate of DDAO-ol (20 μM, final concentration) was added to the initial reaction. […] The standard curve was plotted using DDAO as product standard (Supplementary Figure S6). The control incubations without inhibitors were also performed."}, "[4]": {"experiment": "Estimated local exposure in the gastrointestinal tract (daily dose divided by volume of the human gastrointestinal system)", "details": "oral AGE at daily dosage recommended by Chinese Materia Medica", "text": "A. grossedentata is known as the “king of flavonoids”, while the content of total flavonoids in AGE is up to 45% ([57]). Herein, a total of nine flavonoids in AGE were identified and characterized by LC–MS/MS-based chemical profiling."}, "[5]": {"details": "oral administration; ref [60], [61]; cited from earlier work"}},
  "data": [
    {"molecule": "O=c1c(O)c(-c2cc(O)c(O)c(O)c2)oc2cc(O)cc(O)c12", "note": "[Myricetin]", "values": [
      {"measurement": "IC50", "setting": "[1]", "value": "1.34 ± 0.18", "unit": "µM"},
      {"measurement": "remaining activity at 10 µM", "setting": "[1]", "value": "< 15", "unit": "%"},
      {"measurement": "Ki", "setting": "[2]; apparent Ki", "value": "2.04 ± 0.75", "unit": "µM"},
      {"measurement": "time dependence of hPL inhibition", "setting": "[3]", "value": "not time-dependent"},
      {"measurement": "local exposure in the gastrointestinal tract", "setting": "[4]", "value": 19.37, "unit": "µM"}
    ]},
    {"molecule": "O=c1c(O)c(-c2ccc(O)c(O)c2)oc2cc(O)cc(O)c12", "note": "[Quercetin]", "values": [
      {"measurement": "remaining activity at 10 µM", "setting": "[1]", "value": "< 15", "unit": "%"},
      {"measurement": "Inhibition mode", "setting": "[2]; Lineweaver-Burk plots", "value": "Non-competitive"},
      {"measurement": "time dependence of hPL inhibition", "setting": "[3]", "value": "not time-dependent"}
    ]},
    {"molecule": "Myricitrin", "values": [
      {"measurement": "hPL inhibition at high dose", "setting": "[1]", "value": "did not inhibit"}
    ]},
    {"molecule": "O=c1c(O[C@@H]2OC[C@@H](O)[C@H](O)[C@H]2O)c(-c2ccc(O)c(O)c2)oc2cc(O)cc(O)c12", "note": "[Reynoutirn, Reynoutrin]", "values": [
      {"measurement": "IC50", "setting": "[1]", "value": "> 100", "unit": "µM"},
      {"measurement": "hPL inhibition at high dose", "setting": "[1]", "value": "did not inhibit"}
    ]},
    {"molecule": "Sanggenone C [SanggenoneC, reference compound]", "values": [
      {"measurement": "IC50", "setting": "[1]", "value": "3.46 ± 0.07", "unit": "µM"}
    ]},
    {"molecule": "O=C1c2c(O)cc(O)cc2O[C@H](c2cc(O)c(O)c(O)c2)[C@@H]1O", "note": "[Iso-dihydromyricetin]", "values": [
      {"measurement": "IC50", "setting": "[1]", "value": "14.4 ± 1.21", "unit": "µM"},
      {"measurement": "hPL inhibition activity (qualitative)", "setting": "[1]", "value": "moderate"},
      {"measurement": "local exposure in the gastrointestinal tract", "setting": "[4]", "value": 106.90, "unit": "µM"}
    ]},
    {"molecule": "O=C1c2c(O)cc(O)cc2O[C@H](c2cc(O)c(O)c(O)c2)[C@H]1O", "note": "[Dihydromyricetin]", "values": [
      {"measurement": "IC50", "setting": "[1]", "value": "34.3 ± 4.63", "unit": "µM"},
      {"measurement": "local exposure in the gastrointestinal tract", "setting": "[4]", "value": 206.08, "unit": "µM"},
      {"measurement": "local exposure in stomach and small intestine vs. other deep organs (heart, liver, spleen, lung, kidney, brain)", "setting": "[5]", "value": "much higher"},
      {"measurement": "oral bioavailability", "setting": "[5]", "value": "very poor"}
    ]},
    {"molecule": "O=C1c2c(O)cc(O)cc2OC(c2ccc(O)c(O)c2)C1O", "note": "(stereo not shown) [Taxifolin]", "values": [
      {"measurement": "IC50", "setting": "[1]", "value": "27.8 ± 2.92", "unit": "µM"},
      {"measurement": "hPL inhibition activity (qualitative)", "setting": "[1]", "value": "moderate"},
      {"measurement": "local exposure in the gastrointestinal tract", "setting": "[4]", "value": 11.85, "unit": "µM"}
    ]}
  ]
}
